Patent publication US9067966B2, “Lupeol-type triterpene derivatives as antivirals” (priority 2009, dated 2015)
Several values for one entry are separate records, joined by “and”; a condition that tells them apart may be missing. Identical values can stand only once. Like-named read-outs stand apart in the source and are kept apart here.

Columns and labels:
HIV-193IN 101 = test: P24 assay for anti-HIV activity in Sup-T1 cells; type: cell-based, HIV-1; conditions: Human immunodeficiency virus 1, SUP-T1, read-out: Percent Inhibition of HIV-193IN 101 Replication in Sup-T1 Cells (table title: Percent Viability)
Procedure: Viral p24 is measured after about 72 hours of post infection in presence of drugs using an ABL p24 ELISA kit. 0.5 million cells/well are taken into the 24 well plates and added increasing concentrations of drugs. 1 ng/ml of HIV-1 virus was added to each well and incubated for overnight at 37° C. (37° C. and 5% CO2). After about 16 hours incubation the media was changed and fresh media was added and cultured for about 72 hours. P24 was quantified at the 4th day of post-infection using an ABL kit according to manufacturer's instructions.
Percent Inhibition of HIV-193IN 101 Replication in Sup-T1 Cells

[1] = Cytotoxicity on Sup-T1 cells (MTT); type: cell-based; conditions: human, read-out: Percent Viability; for viability at 0.001 µM: concentration 1 nM; for viability at 0.1 µM: concentration 100 nM; for viability at 1 µM: concentration 1 μM; for viability at 100 µM: concentration 100 μM; for viability at 1 mM: concentration 1 mM
Procedure: Reduction of 3-(4,5-dimethylthiozol-2-yl)-2,5-diphenyltetrazolium bromide (MTT, sigma) is chosen as an optimal end point of cell viability measurement (Mosmann, 1983; Cole, 1986; Alley et al., 1988) […] (0.2×10^6 cells per well) are seeded in 96-well plates. Increasing concentrations of compound are added to the cells and incubated at 37° C. for about 14 hours in a CO2 Incubator with 5% CO2. The media is replaced with a fresh growth medium along with 20 μL of 5 mg/ml 3-(4,5-dimethylthiazol-2-yl)-2,5-diphenyltetrazolium bromide (MTT, Sigma). After incubation for about 4 hours in a humidified atmosphere, the media is removed and 200 μL of 0.1 N acidic isopropyl alcohol is added to the wells to dissolve the MTT-formazan crystals. The absorbance is recorded at 570 nm, immediately after the development of purple colour. Each experiment is conducted in triplicate and the data are represented as average, with standard deviation. Percent viability of the cells is computed with reference to the absorbance of reduced MTT in the experiments conducted in absence of any compound.

HIV-1 strain NL4-3 = test: Anti-HIV-1 luciferase indicator assay in MT2 cells, NL4-3; type: cell-based; conditions: viral strain NL4-3
Procedure: (§1) Compound was dissolved in DMSO to make 30 mM stock. Then the 30 mM stock is further diluted to 4 mM using DMSO. The 4 mM stock was used as the top concentration to carry out an 11-point, 3-fold dilution scheme using DMSO in a 96-well plate to make the compound dose plate. Compounds in the dose plate were transferred to a new 96-well plate (working plate) containing PBS with 0.05% pluronic acid. From this working plate, the compound solution was transferred to the 384-well assay plates.
(§2) Control compounds used in compound control wells were prepared and added to assay plates individually.
(§3) MT2 cells were mixed with HIV-1 strain NL4-3 (or IIIB, or CNHN24) and the cell/virus mixture was added to the aforementioned antivirus assay plates. After incubation in a 37° C., 5% CO2 incubator, the supernatant from the assay plate was transferred to a new 384-well plate containing the indicator cells with a fire fly luciferase gene under HIV-1 LTR control. The expression level of luciferase was related to HIV-1 infectivity and was measured by Bright-Glo kit (Promega).
(§4) Therapeutic index (TI) was determined by taking ratio of CC50/IC50

HIV-1 strain CNHN24 = test: Anti-HIV-1 luciferase indicator assay in MT2 cells, CNHN24; type: cell-based; conditions: viral strain CNHN24; for IC50: read-out: IC50
Procedure: as §1, §2, §3, §4

in vitro = type: cell-based; conditions: human, CC50
Procedure: as §1
(§5) For cytotoxicity assay the same amount of MT2 cells as in antivirus assay but without HIV-1 virus were added to the cytotoxicity plates. The cytotoxicity was measured by Cell Titer-Glo cell viability assay (Promega).

HIV-1 strain IIIB = test: Anti-HIV-1 luciferase indicator assay in MT2 cells, IIIB; type: cell-based; conditions: viral strain II B; for IC50: read-out: IC50
Procedure: as §1, §2, §3, §4

[2] = Cytotoxicity on Molt-4 cells (MTT); type: cell-based; conditions: human, read-out: Percent Viability; for viability at 24 h, 0.1 µM: concentration 0.1 μM; for viability at 24 h, 1 µM: concentration 1 μM; for viability at 24 h, 10 µM: concentration 10 μM; for viability at 24 h, 100 µM: concentration 100 μM
Procedure: 10 mM stock solution of the test compound was made in DMSO and stored at −20° C. for further use. During the day of the experiment working stocks were made by serial dilution with DMSO. The final concentration of DMSO in the test media is 1%.
MTT assay was performed in a 96 well format using Molt-4 cell line (Human acute T lymphoblastic leukemia)—a suspension culture maintained in RPMI with 10% FBS media.
Approximately 0.03 million cells are seeded/well and the plate was incubated for 16 hours. Following incubation, cells are treated with a test compound at a defined concentration in triplicates and incubation was continued for another 24 hours. At the end of the incubation, MTT reagent was added (10 μl, 5 mg/ml stock) to the plate and continued incubation for additional 4 hours. Reaction was terminated by addition of 200 μl 0.1N acidic propanol. The colour developed was measured by a plate reader using 590 nm filters. The percent viability was calculated by comparing mean absorbance value of sample with the control (Vehicle alone).

HIV-1 strain 92-HT599 = test: Anti HIV-1 p24 assay, strain 92-HT599 in MT2 cells; type: cell-based; conditions: Human immunodeficiency virus 1, MT2 cells, read-out: Percent inhibition
Procedure: MT2 cells were infected with the HIV-1 strain 92-HT599 (10TCID50/30000 cells). The infected cells are plated at the concentration of 30000 cells per well in a 96 well assay micro plate. A test compound was added to the micro plate in a defined format with the final concentration of DMSO (vehicle) being not more than 1%. Incubation was carried out in a CO2 incubator for 96 hours for viral infection. At the end of incubation period an aliquot from each well was taken for p24 estimation. The quantitation of p24 is an index for antiviral activity of the compound. Percent inhibition was calculated with reference to control values (vehicle).
P24 estimation was carried out using an Advance Biosciences kit as per the procedure as detailed by supplier.
[…] was made by dissolving test compound in DMSO. Subsequent dilutions were made with DMSO to make necessary working stocks (100×).

MT2 cells = test: in vitro; type: cell-based; conditions: human
Procedure: as §1, §5

[3] = Human immunodeficiency virus 1, NL43, MT2, MT2 cells, read-out: IC50
[4] = Human immunodeficiency virus 1, MT2, MT2 cells
[5] = Human immunodeficiency virus 1, IIIB, MT2, MT2 cells

In the case of `C=C(C)[C@@H]1CC[C@]2(C(=O)N[C@H]3C[C@@H](C(=O)N4CCCCC4)C3(C)C)CC[C@]3(C)[C@H](CC[C@@H]4[C@@]5(C)CC[C@H](OC(=O)[C@@H]6C[C@H](C(=O)O)C6(C)C)C(C)(C)[C@@H]5CC[C@]43C)[C@@H]12`, the melting point is reported as 257.7 to 269 °C.
Work on `C=C(C)[C@@H]1CC[C@]2(C(=O)N[C@@H]3C[C@H](C(=O)OCc4ccccc4)C3(C)C)CC[C@]3(C)[C@H](CC[C@@H]4[C@@]5(C)CC[C@H](OC(=O)CC(C)(C)C(=O)O)C(C)(C)[C@@H]5CC[C@]43C)[C@@H]12` yielded a melting point of 64.7 to 100.4 °C.
Compound `C=C(C)[C@@H]1CC[C@]2(C(=O)O)CC[C@]3(C)[C@H](CC[C@@H]4[C@@]5(C)CC[C@H](OC(=O)[C@@H]6C[C@H](C(=O)O)C6(C)C)C(C)(C)[C@@H]5CC[C@]43C)[C@@H]12` [Example 4, (1R,3aS,5aR,5bR,7aR,9S,11aR,11bR,13aR,13bR)-9-((1R,3S)-3-carboxy-2,2-dimethylcyclobutanecarbonyloxy)-5a,5b,8,8,11a-pentamethyl-1-(prop-1-en-2-yl)icosahydro-1H-cyclopenta[a]chrysene-3a-carboxylic acid] has an inhibition at 0.0001 µM (HIV-193IN 101) of 13%, an inhibition at 0.001 µM (HIV-193IN 101) of 17.7% and an inhibition at 0.1 µM (HIV-193IN 101) of 23.5%. It also gave an inhibition at 1 µM (HIV-193IN 101) of 42.4%, an inhibition at 100 µM (HIV-193IN 101) of 87.5% and a viability at 0.001 µM [1] of 85.8%. The viability at 0.1 µM [1] was 86.8%, the viability at 1 µM [1] was 85.2% and the viability at 100 µM [1] was 39%. For the same compound, the viability at 1 mM [1] was 26.2%, the IC50 (HIV-1 strain NL4-3; [3]) was 201 nM and the “TI / Safety Index (CC50/IC50)” value (HIV-1 strain NL4-3; MT2 cells) was 91. For the same compound, the IC50 (HIV-1 strain CNHN24; [4]) was 218 nM, the “TI / Safety Index (CC50/IC50)” value (HIV-1 strain CNHN24; MT2 cells) was 91 and the CC50 (in vitro) was 20000 nM. For the same compound, the IC50 (HIV-1 strain IIIB; [5]) was 364 nM, the “TI / Safety Index (CC50/IC50)” value (HIV-1 strain IIIB; MT2 cells) was 54 and the viability at 24 h, 0.1 µM [2] was 101%. It also gave a viability at 24 h, 1 µM [2] of 98.7%, a viability at 24 h, 10 µM [2] of 102% and a viability at 24 h, 100 µM [2] of 7.03%.
Work on `C=C(C)[C@@H]1CC[C@]2(C(=O)O)CC[C@]3(C)C(CC[C@@H]4[C@@]5(C)[C@@H](C(=O)O)[C@H](OC(=O)CC(C)(C)C(=O)O)C(C)(C)[C@@H]5CC[C@]43C)C12` (stereo partly drawn) [Example 6, (1R,2S,3aR,5aR,5bR,7aS,10R,12aR,12bR)-2-(3-carboxy-3-methylbutanoyloxy)-3,3,5a,5b,12b-pentamethyl-10-(prop-1-en-2-yl)icosahydrodicyclopenta[a,i]phenanthrene-1,7a-dicarboxylic acid] yielded an inhibition at 0.0001 µM (HIV-193IN 101) of 17.5%, an inhibition at 0.001 µM (HIV-193IN 101) of 15.2% and an inhibition at 0.1 µM (HIV-193IN 101) of 21.1%. The inhibition at 1 µM (HIV-193IN 101) was 32.1%, the inhibition at 100 µM (HIV-193IN 101) was 34.9% and the viability at 0.001 µM [1] was 86.9%. The viability at 0.1 µM [1] was 82.7%, the viability at 1 µM [1] was 88.6% and the viability at 100 µM [1] was 88.8%. The viability at 1 mM [1] was 23.1%, the viability at 24 h, 0.1 µM [2] was 103% and the viability at 24 h, 1 µM [2] was 99%. For the same compound, the viability at 24 h, 10 µM [2] was 82.8% and the viability at 24 h, 100 µM [2] was 7.27%.
With `C=C(C)[C@@H]1CC[C@]2(C(=O)N[C@H]3C[C@@H](C(=O)N4CCCC4)C3(C)C)CC[C@]3(C)[C@H](CC[C@@H]4[C@@]5(C)CC[C@H](OC(=O)CC(C)(C)C(=O)O)C(C)(C)[C@@H]5CC[C@]43C)[C@@H]12` [Example 15, 4-((1R,3aS,5aR,5bR,7aR,9S,11aR,11bR,13aR,13bR)-3a-((1S,3R)-2,2-dimethyl-3-(pyrrolidine-1-carbonyl)cyclobutylcarbamoyl)-5a,5b,8,8,11a-pentamethyl-1-(prop-1-en-2-yl)icosahydro-1H-cyclopenta[a]chrysen-9-yloxy)-2,2-dimethyl-4-oxobutanoic acid] the inhibition at 0.1 µM (HIV-1 strain 92-HT599; HIV-1 92-HT599, p24, concentration 0.1 μM) was 86%, the inhibition at 1 µM (HIV-1 strain 92-HT599; HIV-1 92-HT599, p24, concentration 1 μM) was 98% and the melting point was 110 to 114 °C.
For `C=C(C)[C@@H]1CC[C@]2(C(=O)O)CC[C@]3(C)[C@H](CC[C@@H]4[C@@]5(C)CC[C@H](OC(=O)[C@H]6C[C@@H](C(=O)O)C6(C)C)C(C)(C)[C@@H]5CC[C@]43C)[C@@H]12` [Example 19, (1R,3aS,5aR,5bR,7aR,9S,11aR,11bR,13aR,13bR)-9-((1S,3R)-3-carboxy-2,2-dimethylcyclobutanecarbonyloxy)-5a,5b,8,8,11a-pentamethyl-1-(prop-1-en-2-yl)icosahydro-1H-cyclopenta[a]chrysene-3a-carboxylic acid], the IC50 (HIV-1 strain NL4-3; [3]) was 72 nM, the “TI / Safety Index (CC50/IC50)” value (HIV-1 strain NL4-3; MT2 cells) was 277 and the IC50 (HIV-1 strain CNHN24; [4]) was 26 nM. The “TI / Safety Index (CC50/IC50)” value (HIV-1 strain CNHN24; MT2 cells) was 769, the CC50 (in vitro) was 20000 nM and the IC50 (HIV-1 strain IIIB; [5]) was 21 nM. For the same compound, the “TI / Safety Index (CC50/IC50)” value (HIV-1 strain IIIB; MT2 cells) was 952 and the melting point was 308 to 310 °C.
With `C=C(C)[C@@H]1CC[C@]2(C(=O)N[C@@H]3C[C@H](C(=O)N4CCCCC4)C3(C)C)CC[C@]3(C)[C@H](CC[C@@H]4[C@@]5(C)CC[C@H](OC(=O)CC(C)(C)C(=O)O)C(C)(C)[C@@H]5CC[C@]43C)[C@@H]12` [Example 48, 4-((1R,3aS,5aR,5bR,7aR,9S,11aR,11bR,13aR,13bR)-3a-((1R,3S)-2,2-dimethyl-3-(piperidine-1-carbonyl)cyclobutylcarbamoyl)-5a,5b,8,8,11a-pentamethyl-1-(prop-1-en-2-yl)icosahydro-1H-cyclopenta[a]chrysen-9-yloxy)-2,2-dimethyl-4-oxobutanoic acid] the IC50 (HIV-1 strain NL4-3; Human immunodeficiency virus 1, NL43, MT2, MT2 cells) was 9 nM, the “TI / Safety Index (CC50/IC50)” value (HIV-1 strain NL4-3; MT2 cells) was 2072 and 1176 and the IC50 (HIV-1 strain NL4-3; MT2 cells, read-out: IC50) was 17 nM. It also gave an IC50 (HIV-1 strain CNHN24; [4]) of 11 nM, an IC50 (HIV-1 strain CNHN24; MT2 cells) of 21 nM and a CC50 (MT2 cells) of 20000 nM. For the same compound, the CC50 (in vitro) was over 20000 nM, the IC50 (HIV-1 strain IIIB; [5]) was 18 nM and the “TI / Safety Index (CC50/IC50)” value (HIV-1 strain IIIB; MT2 cells) was 1061 and 800. The IC50 (HIV-1 strain IIIB; MT2 cells) was 25 nM.
